# Tested on: Mycobacterium tuberculosis variant bovis
# Assay: Antimycobacterial activity against Mycobacterium bovis ATCC35737 assessed as mycobacterial growth inhibition
# Format: functional
structure (smiles),measurement,value
COc1ncc(-c2ccccc2)cc1[C@@H](c1ccccc1)[C@@](O)(CCN(C)C)c1cccc2ccccc12,MIC,0.5 µg/mL
